From US10358434B2, “2-(3-pyridinyl)-1H-benzimidazole derivative compound and medicament containing same” (NIHON MEDI-PHYSICS CO., LTD., priority 2014, dated 2019)

Legend:
[1] = tested on: human adrenal gland section expressing aldosterone-producing adenoma; test: In vitro autoradiography using human adrenal adenoma; type: binding; settings: section of FIG. 17(b)
How it was run: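 Autoradiography readout: PSL in equal-sized ROIs over adenoma (B2) and normal adrenal cortex (B1), expressed as B2/B1 and decay-corrected using half-life, applied activity and plate contact time. Tissue was surgically excised human adrenal, frozen and cut at 7 μm, incubated 10 min with 5-33 kBq/mL tracer in BSA-containing PBS, then imaged after 16-20 h exposure.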

[2] = In vivo kinetics experiment (radioactivity distribution); set-up: species or system Wistar male rat; settings: rat i.v., mean ± SD
How it was run: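 Tissue radioactivity (% ID/g) and adrenal-to-blood, liver, kidney, small intestine, muscle and fat ratios determined at 10, 30 and 60 min post-dose. Tracers (approximately 1 to 3.7 MBq, saline with 1 w/v % ascorbic acid) injected i.v. into caudal vein of anesthetized 9-week male Wistar rats; organs excised, weighed, counted.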

[3] = Plasma stability evaluation (TLC analysis); type: in vitro ADME; settings: 37° C., 60 minutes, TLC analysis
How it was run: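 TLC analysis, using each compound's synthesis conditions, judged stability after methanol was added and samples were centrifuged to remove protein. Beforehand, each tracer had spent 60 minutes at 37° C in pooled heparinized normal human plasma.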

Adrenal gland/blood ratio of radioactivity accumulation ([2]; 10 min after administration): 39.83 ± 1.25 | Adrenal gland/fat ratio of radioactivity accumulation ([2]; 10 min after administration): 41.90 ± 6.19 | Adrenal gland/kidney ratio of radioactivity accumulation ([2]; 10 min after administration): 2.61 ± 0.04 | Adrenal gland/liver ratio of radioactivity accumulation ([2]; 10 min after administration): 1.38 ± 0.01 | Adrenal gland/muscle ratio of radioactivity accumulation ([2]; 10 min after administration): 36.77 ± 3.87 | Adrenal gland/small intestine ratio of radioactivity accumulation ([2]; 10 min after administration): 2.44 ± 0.80 | Radioactivity distribution Adrenal gland ([2]; 10 min after administration): 5.67 ± 0.25 % ID/g | Radioactivity distribution Bladder (including urine) ([2]; 10 min after administration): 0.09 ± 0.06 % ID/g | Radioactivity distribution Blood ([2]; 10 min after administration): 0.14 ± 0.00 % ID/g | Radioactivity distribution Fat ([2]; 10 min after administration): 0.14 ± 0.02 % ID/g | Radioactivity distribution Femur ([2]; 10 min after administration): 0.51 ± 0.02 % ID/g | Radioactivity distribution Heart ([2]; 10 min after administration): 0.73 ± 0.06 % ID/g | Radioactivity distribution Kidney ([2]; 10 min after administration): 2.17 ± 0.09 % ID/g | Radioactivity distribution Large intestine ([2]; 10 min after administration): 0.13 ± 0.01 % ID/g | Radioactivity distribution Liver ([2]; 10 min after administration): 4.12 ± 0.23 % ID/g | Radioactivity distribution Lung ([2]; 10 min after administration): 1.94 ± 0.16 % ID/g | Radioactivity distribution Muscle (lower limbs) ([2]; 10 min after administration): 0.16 ± 0.01 % ID/g | Radioactivity distribution Remaining whole body ([2]; 10 min after administration): 0.20 ± 0.01 % ID/g | Radioactivity distribution Small intestine ([2]; 10 min after administration): 2.46 ± 0.61 % ID/g | Radioactivity distribution Spleen ([2]; 10 min after administration): 1.08 ± 0.10 % ID/g | Radioactivity distribution Stomach ([2]; 10 min after administration): 0.80 ± 0.23 % ID/g | Radioactivity distribution Testis ([2]; 10 min after administration): 0.03 ± 0.00 % ID/g | Radioactivity distribution Whole brain ([2]; 10 min after administration): 0.03 ± 0.00 % ID/g | Adrenal gland/blood ratio of radioactivity accumulation ([2]; 30 min after administration): 26.42 ± 7.24 | Adrenal gland/fat ratio of radioactivity accumulation ([2]; 30 min after administration): 22.69 ± 9.87 | Adrenal gland/kidney ratio of radioactivity accumulation ([2]; 30 min after administration): 2.58 ± 0.55 | Adrenal gland/liver ratio of radioactivity accumulation ([2]; 30 min after administration): 1.14 ± 0.36 | Adrenal gland/muscle ratio of radioactivity accumulation ([2]; 30 min after administration): 14.44 ± 5.54 | Adrenal gland/small intestine ratio of radioactivity accumulation ([2]; 30 min after administration): 0.79 ± 0.34 | Radioactivity distribution Adrenal gland ([2]; 30 min after administration): 3.10 ± 1.06 % ID/g | Radioactivity distribution Bladder (including urine) ([2]; 30 min after administration): 0.15 ± 0.01 % ID/g | Radioactivity distribution Blood ([2]; 30 min after administration): 0.12 ± 0.01 % ID/g | Radioactivity distribution Fat ([2]; 30 min after administration): 0.14 ± 0.03 % ID/g | Radioactivity distribution Femur ([2]; 30 min after administration): 0.44 ± 0.04 % ID/g | Radioactivity distribution Heart ([2]; 30 min after administration): 0.52 ± 0.04 % ID/g | Radioactivity distribution Kidney ([2]; 30 min after administration): 1.18 ± 0.14 % ID/g | Radioactivity distribution Large intestine ([2]; 30 min after administration): 0.16 ± 0.01 % ID/g | Radioactivity distribution Liver ([2]; 30 min after administration): 2.72 ± 0.12 % ID/g | Radioactivity distribution Lung ([2]; 30 min after administration): 0.99 ± 0.10 % ID/g | Radioactivity distribution Muscle (lower limbs) ([2]; 30 min after administration): 0.22 ± 0.02 % ID/g | Radioactivity distribution Remaining whole body ([2]; 30 min after administration): 0.21 ± 0.02 % ID/g | Radioactivity distribution Small intestine ([2]; 30 min after administration): 3.99 ± 0.33 % ID/g | Radioactivity distribution Spleen ([2]; 30 min after administration): 0.58 ± 0.09 % ID/g | Radioactivity distribution Stomach ([2]; 30 min after administration): 1.38 ± 0.42 % ID/g | Radioactivity distribution Testis ([2]; 30 min after administration): 0.03 ± 0.00 % ID/g | Radioactivity distribution Whole brain ([2]; 30 min after administration): 0.03 ± 0.00 % ID/g | Adrenal gland/blood ratio of radioactivity accumulation ([2]; 60 min after administration): 20.07 ± 1.94 | Adrenal gland/fat ratio of radioactivity accumulation ([2]; 60 min after administration): 10.82 ± 1.23 | Adrenal gland/kidney ratio of radioactivity accumulation ([2]; 60 min after administration): 2.05 ± 0.09 | Adrenal gland/liver ratio of radioactivity accumulation ([2]; 60 min after administration): 0.88 ± 0.05 | Adrenal gland/muscle ratio of radioactivity accumulation ([2]; 60 min after administration): 10.90 ± 0.67 | Adrenal gland/small intestine ratio of radioactivity accumulation ([2]; 60 min after administration): 0.26 ± 0.08 | Radioactivity distribution Adrenal gland ([2]; 60 min after administration): 1.70 ± 0.21 % ID/g | Radioactivity distribution Bladder (including urine) ([2]; 60 min after administration): 0.13 ± 0.05 % ID/g | Radioactivity distribution Blood ([2]; 60 min after administration): 0.09 ± 0.02 % ID/g | Radioactivity distribution Fat ([2]; 60 min after administration): 0.16 ± 0.02 % ID/g | Radioactivity distribution Femur ([2]; 60 min after administration): 0.36 ± 0.03 % ID/g | Radioactivity distribution Heart ([2]; 60 min after administration): 0.35 ± 0.09 % ID/g | Radioactivity distribution Kidney ([2]; 60 min after administration): 0.83 ± 0.10 % ID/g | Radioactivity distribution Large intestine ([2]; 60 min after administration): 0.19 ± 0.03 % ID/g | Radioactivity distribution Liver ([2]; 60 min after administration): 1.93 ± 0.37 % ID/g | Radioactivity distribution Lung ([2]; 60 min after administration): 0.56 ± 0.15 % ID/g | Radioactivity distribution Muscle (lower limbs) ([2]; 60 min after administration): 0.16 ± 0.01 % ID/g | Radioactivity distribution Remaining whole body ([2]; 60 min after administration): 0.13 ± 0.02 % ID/g | Radioactivity distribution Small intestine ([2]; 60 min after administration): 6.65 ± 0.98 % ID/g | Radioactivity distribution Spleen ([2]; 60 min after administration): 0.34 ± 0.07 % ID/g | Radioactivity distribution Stomach ([2]; 60 min after administration): 2.22 ± 0.73 % ID/g | Radioactivity distribution Testis ([2]; 60 min after administration): 0.03 ± 0.01 % ID/g | Radioactivity distribution Whole brain ([2]; 60 min after administration): 0.02 ± 0.01 % ID/g | Radiochemical purity after incubation in human plasma [3]: 90%
SMILES: Fc1cc2nc(-c3cncc(Cn4ccnc4)c3)n(Cc3ccc([123I])cc3)c2cc1Cl [[^123I] 605, 6-Chloro-5-fluoro-1-(4-[^123I]iodobenzyl)-2-[5-(1H-imidazol-1-ylmethyl)-3-pyridinyl]-1H-benzimidazole]
B2/B1 accumulation ratio [1]: 0.94 | B2 (PSL value, aldosterone-producing adenoma) ([1]; site 71b): 4065 | B1 (PSL value, normal adrenal cortex) ([1]; site 72b): 4318
